Assay results: PMC8398393, “Synthesis and Biological Evaluation of Amidinourea Derivatives against Herpes Simplex Viruses” (Molecules, 2021)

Columns and labels:
[1] = tested on: HSV-1; assay: Virus yield reduction assay (plaque titration) HSV-1; format: cell-based, Herpes simplex virus type 1 (clinical isolate) in Vero cells; conditions: for antiviral activity against HSV-1 (in words): virus yield reduction, Vero cells, MOI 0.1, 48 h, 100 µM (50 µM for 5f and 5k); for IC50: Human alphaherpesvirus 1, HSV-1, Vero cells, MOI 0.1, 2 h pre-treatment, 48 h, plaque assay, read-out: IC50 values (compound concentration required to inhibit 50% of viral infectivity)
Experimental: (§1) Vero cells were seeded at a density of 3 × 10^5/well in a 24-well culture plate. Twenty-four hours later, the cells were pre-treated with the different drugs for 2 h at 37 °C, and then infected in duplicate with HSV-1 or HSV-2 at an MOI of 0.1, in the presence of the compounds; following virus adsorption, the viral inoculum was removed and cultures were exposed to the compounds for 48 h. The extent of HSV-1 and HSV-2 replication was then assessed by titrating the infectivity of supernatants and cell-associated viruses using a standard plaque assay in Vero cells. Plaques were microscopically counted, and the mean plaque counts for each drug concentration were expressed as plaque-forming units per milliliter (PFU/mL) (Figure 3).
(§2) The African green monkey kidney cells (Vero, ATCC CCL-81™) were cultured in Dulbecco’s Modified Eagle’s Medium, supplemented with 10% heat inactivated fetal bovine serum (FBS), 2 mM glutamine, 1 mM sodium pyruvate, 100 U/mL penicillin and 100 µg/mL streptomycin sulfate (Sigma-Aldrich, Milan, Italy). Clinical isolates of HSV-1 and HSV-2 were a generous gift from Valeria Ghisetti, Amedeo di Savoia Hospital, Turin, Italy. They were propagated and titrated by plaque assay on Vero cells, as previously described.
(§3) Vero cells were seeded in 24-well plates and pre-treated, after 24 h, with different concentrations of the amidinourea derivatives or the vehicle control (DMSO) for 2 h at 37 °C. They were then infected with HSV at MOI of 0.1 PFU/cell in the presence of the compounds. Following virus adsorption (2 h at 37 °C), the viral inoculum was removed, and the cultures were maintained in a medium that contained the corresponding molecule for 48 h. The cells and supernatants were then harvested and disrupted using three freeze (liquid nitrogen)/thaw (37 °C) cycles. The extent of virus replication was subsequently assessed by titrating the infectivity of the supernatants of the cell suspensions in Vero cells, as previously described. Plaques were microscopically counted, and the mean plaque counts for each drug concentration were expressed as PFU/mL.
(§4) Data were presented as the mean value and standard error of the mean (SEM). Data were analyzed by means of GraphPad Prism 5 software (GraphPad Software, Inc., La Jolla, CA, USA). Statistical analysis was performed using one-way ANOVA with Bonferroni’s post-test; p < 0.05 was considered statistically significant. The IC50 e CC50 values were calculated using the online tool Quest Graph™ IC50 Calculator, AAT Bioquest, Inc., Sunnyvale, CA, USA, https://www.aatbio.com/tools/ic50-calculator (accessed on 4 May 2021).
(§5) Figure 3 Antiviral activity of 5a–k against HSV-1 and HSV-2. Upper panel. Virus yield reduction assay. Vero cells were treated as described in the manuscript with the indicated compounds. The extent of (A) HSV-1 and (B) HSV-2 replication was then assessed by titrating the infectivity of supernatants and cell-associated viruses using a standard plaque assay in Vero cells. Plaques were microscopically counted, and the mean plaque counts for each molecule were expressed as PFU/mL. Mean ± SEM is shown (***, p < 0.001, one-way ANOVA followed by Bonferroni’s post-tests). Lower panel. Representative light microscopy images of Vero cells infected with (A) HSV-1 or (B) HSV-2 and treated with the indicated compounds, as described for virus yield reduction assay. Original magnification: 20×.
Figure 4 (A) Vero cells were infected with HSV-1 and, where indicated, the cells were treated with increasing concentrations of the indicated compounds, before and during virus adsorption. These remained in the culture media throughout the experiment. The extent of HSV-1 replication was then assessed by titrating the infectivity of supernatants and cell-associated viruses—obtained from freeze (liquid nitrogen)/thaw (37 °C) cycles—and combined using a standard plaque assay. […]

[2] = Cytotoxicity assay (MTT) in Vero cells; format: cell-based; conditions: African green monkey, Vero cells (African green monkey kidney cells), compound concentration that produces 50% of cytotoxicity
Experimental: We then investigated whether the new amidinourea derivatives 5a–k could affect HSV-1 and HSV-2 replication. We first assessed cell cytotoxicity of the compounds in African green monkey kidney cells (Vero) to rule out the possibility that antiviral activity was related to the cytotoxic effects of the drug (Table 1). Vero cells were seeded at a density of 3 × 10^4/well in a 96-well culture plate. After 24 h, the cells were treated with different dilutions of drugs, or mock-treated using the same amount of vehicle solution (DMSO). Forty-eight hours after treatment, cell viability was determined using a standard 3-(4,5-dimethylthiazol-2-yl)-2,5-diphenyltetrazolium bromide (MTT) assay. The compounds were considered non-toxic only if they maintained at least 70% cell viability after 48 h of treatment.
To determine the cytotoxicity of amidinourea derivatives, Vero cells were seeded in a 96-well culture plate and exposed to increasing concentrations of either compounds or vehicle (DMSO) the following day. After 48 h of incubation, the number of viable cells was determined using the 3-(4,5-dimethylthiazol-2-yl)-2,5-diphenyltetrazolium bromide (MTT) (Sigma-Aldrich, Milan, Italy) assay, as previously described.
as §4

[3] = tested on: HSV-2; assay: Virus yield reduction assay (plaque titration) HSV-2; format: cell-based, Herpes simplex virus type 2 (clinical isolate) in Vero cells; conditions: Vero cells, MOI 0.1, 48 h, 100 µM (50 µM for 5f and 5k)
Experimental: as §1, §2, §3
as §5, with “Representative light microscopy images of Vero cells infected with (A) HSV-1 or (B) HSV-2 and treated with the indicated compounds, as described for virus yield reduction assay. Original magnification: 20×.” left out

[4] = tested on: ICP8 and gD (HSV-2); assay: Western blot of viral gene expression in HSV-2-infected Vero cells; format: cell-based, HSV-2 in Vero cells; conditions: MOI 0.3, various times post infection, immunoblotting
Experimental: (§6) Finally, to identify the phase of HSV replication program that is affected by amidinourea derivatives, the effects of 5i compound on viral gene expression was investigated in HSV-1 and HSV-2-infected cells. To this end, the total protein cell extracts were prepared from HSV-infected Vero cells treated with 5i, or vehicle control, for various lengths of time post infection. The expression patterns of ICP27, for HSV-1, ICP8, for HSV-2, gD, for HSV-1 and HSV-2, were then examined via immunoblotting with specific antibodies and were used as a reflection of the levels of immediate-early/early (ICP27, ICP8) and late (gD) viral products, respectively. […] However, the precise mechanism exploited by amidinourea derivatives to carry out their antiviral activity against HSV still deserves to be elucidated and is beyond the goals of the present communication.
(§7) After treatment, the cells were washed with phosphate-buffered saline (PBS), and cell lysis was carried out using radioimmunoprecipitation assay (RIPA) buffer to obtain total cell lysate. […]
(§8) Figure 5 Vero cells were mock infected or infected with HSV-1 (A) or HSV-2 (B) at an MOI of 0.3. Protein levels of ICP27 (HSV-1), ICP8 (HSV-2) and gD (HSV-1/2) were assessed at different times post infection (hpi) by Western blotting (upper panels). […]

[5] = tested on: ICP27 and gD (HSV-1); assay: Western blot of viral gene expression in HSV-1-infected Vero cells; format: cell-based, HSV-1 in Vero cells; conditions: MOI 0.3, various times post infection, immunoblotting
Experimental: as §6, §7, §8

Structure (SMILES)	antiviral activity against HSV-1 (in words) [1]	CC50 at 48 h [2]	antiviral activity against HSV-2 (in words) [3]	further results
N=C(NC(=O)N1CCOCC1)Nc1ccc(Cl)cc1 [Compound 5d]	more pronounced against HSV-1	1560 µM		
N=C(NC(=O)N1CCNC(c2ccccc2)C1)Nc1ccc(Cl)cc1 (stereo not drawn) [Compound 5f]		98.6 µM		
Cc1ccc(CNC(=O)NC(=N)Nc2ccc(Cl)cc2)cc1 [Compound 5c]		184 µM		
N=C(NCc1ccccc1)NC(=O)N1CCN(c2ccccc2)CC1 [Compound 5g]		246 µM		
CC(NC(=O)NC(=N)Nc1ccc(Cl)cc1)c1ccccc1 (stereo not drawn) [Compound 5b]		196 µM		
N=C(NC(=O)N1CCN(C23CC4CC(CC(C4)C2)C3)CC1)Nc1ccc(Cl)cc1 [Compound 5k]	very strong activity	86.7 µM	very strong activity	IC50 [1]: 18.5 µM
N=C(N)/N=C(\N)N1CCOCC1 [moroxydine, reference compound]	does not show any antiviral activity		does not show any antiviral activity	
N=C(NC(=O)N1CCN(c2ccccc2)CC1)Nc1ccc(Cl)cc1 [Compound 5i]	very strong activity	149 µM	very strong activity	expression of viral proteins ICP8 and gD (HSV-2) [4]: overall decrease of viral proteins; expression of viral proteins ICP27 and gD (HSV-1) [5]: overall decrease of viral proteins
N=C(NCc1ccccc1)NC(=O)N1CCN(c2ccc(F)cc2)CC1 [Compound 5h]		389 µM		
N=C(NCc1ccccc1)NC(=O)N1CCN(c2ccc(Cl)cc2)CC1 [Compound 5j]	very strong activity	177 µM	very strong activity	IC50 [1]: 72.1 µM
N=C(NC(=O)NCCNc1ccccc1)Nc1ccc(Cl)cc1 [Compound 5e]		142 µM		
N=C(NC(=O)NCc1ccc(Cl)cc1)Nc1ccc(Cl)cc1 [Compound 5a]		168 µM		
